Laboratory results: patent US12566184B2, “Cell-free biosensors to detect creatinine, creatine, and sarcosine” (Georgia Tech Research Corporation, priority 2021, dated 2026)

Tested on: colored probe product
Experiment: enzymatic creatinine assay with limited chemical probe (Amplex Red): stabilization of probe signal by antioxidants
Assay type: biochemical
Conditions: antioxidants added at different concentrations; chemical probe at low concentration
Text: The existing assay is a purely enzymatic approach that translates the concentration of creatinine into a colorimetric change of varying intensity. It contains two enzymes. The first enzyme, creatininase, catalyzes the conversion of creatinine to creatine. The second enzyme, creatinase, catalyzes creatine to sarcosine. This bioconversion aspect of the assay can be maintained in both of the embodiments. In the existing assay, the sarcosine is then oxidized by sarcosine oxidase, generating hydrogen peroxide in the process. The fluorogenic peroxidase substrate Amplex Red, hereafter referred to as the “probe”, interacts with the generated hydrogen peroxide in the presence of horseradish peroxidase to produce the red-fluorescent product resorufin (see Yamkamon et al. Simultaneous determination of sarcosine and its related metabolites by gas chromatography-tandem mass spectrometry for prostate cancer diagnosis, EXCLI Journal, 2018). Resorufin accumulation leads to a visible color change with a linear response over physiological serum creatinine concentrations. However, there is significant day-to-day variability of unknown origin that affects the amplitude of the output, thus requiring (per manufacturer's instructions) a calibration curve to be run with every sample or batch of samples and complicating field deployment.
In certain embodiments of the disclosed invention, the existing assay can be taken in its entirety and titrated down the amount of probe (fluorogenic peroxidase substrate, Amplex Red) so as to produce a sample-specific calibration curve. The probe concentration that corresponds with specific creatinine concentrations in calibration tests can be first identified using defined chemical mixtures and then implemented in a serum sample matrix to validate the sample-specific calibration curve. […] This method yields a set of reactions to which patient sample can be added, and regardless of the sample levels of creatinine, the calibration spots will all correspond to defined levels of creatinine. The reaction with excess probe can then be visually compared to the calibration spots to determine the creatinine level. In particular, a shift from colorless to red may be useful for a presence-absence or binary diagnostic test. For more accurate monitoring of intensity of color, a plate reader (e.g., spectrophotometer or fluorescence reader) can be used.
Furthermore, in order to reduce the patient-to-patient variability in readouts, also known as matrix effects, where the molecule being measured may appear to be at a different concentration only due to interferences from other constituents of the solution, the inventors identified that the appropriate reagent to limit was not the enzymes in the chemical assay, but rather the chemical probe. However, when the concentration of the chemical probe was reduced to a low level to enable the calibration approach, a side reaction happened where probe that has been transformed from colorless into colored form undergoes a second reaction that brings it back to a colorless form. This made the signal “decay” and thus would lead to an underreporting of the target molecule's concentration.

| Molecule | effect on decay of probe signal (transformation of colored probe product into colorless side product) |
| --- | --- |
| Cc1c(C)c2c(c(C)c1O)CCC(C)(C(=O)O)O2 (racemic) [(±)-6-Hydroxy-2,5,7,8-tetramethylchromane-2-carboxylic acid] | preventing the decay of probe signal |
| N[C@@H](CCC(=O)N[C@@H](CS)C(=O)NCC(=O)O)C(=O)O [L-glutathione (reduced)] | preventing the decay of probe signal |
| O=C1O[C@H]([C@@H](O)CO)C(O)=C1O [Vitamin C] | preventing the decay of probe signal |
| O=C(O)CC(O)(CC(=O)O)C(=O)O [citric acid] | preventing the decay of probe signal |
| O=c1[nH]c(=O)c2[nH]c(=O)[nH]c2[nH]1 [uric acid] | preventing the decay of probe signal |
| Vitamin E | preventing the decay of probe signal |
